Assay results: the supplement of paper PMC10307832

Assays:
Assay in all cases: relative viability (nuclei count vs DMSO), 5 days (fraction); higher = more cells survive
[1] = tested on: ABC-1
Procedure, shortened: (§1)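 Cells from lung cancer lines were seeded into 1536-well plates and, one day later, dosed by pin tool. Treatments were either a single drug or a fixed dose of an anchor drug with five library-drug doses (not always all listed) in √10 steps. After 5 days, nuclei were stained in a one-step fixation (final 0.05% Triton X-100, 1% formaldehyde, 1 ug/ml Hoechst) and counted on 4× images, and relative viability is the treated-to-vehicle nuclei ratio, as the median of duplicate plates.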

[2] = tested on: CAL-12T
Procedure, shortened: as §1

[3] = tested on: ChaGo-K-1
Procedure, shortened: as §1

[4] = tested on: HCC-44
Procedure, shortened: as §1

[5] = tested on: HCC-827
Procedure, shortened: as §1

[6] = tested on: LCLC-103H
Procedure, shortened: as §1

[7] = tested on: LU99A
Procedure, shortened: as §1

[8] = tested on: LXF-289
Procedure, shortened: as §1

[9] = tested on: NCI-H1395
Procedure, shortened: as §1

[10] = tested on: NCI-H1666
Procedure, shortened: as §1

[11] = tested on: NCI-H1755
Procedure, shortened: as §1

[12] = tested on: NCI-H1792
Procedure, shortened: as §1

[13] = tested on: NCI-H1793
Procedure, shortened: as §1

[14] = tested on: NCI-H1944
Procedure, shortened: as §1

[15] = tested on: NCI-H2126
Procedure, shortened: as §1

[16] = tested on: NCI-H2347
Procedure, shortened: as §1

[17] = tested on: NCI-H3122
Procedure, shortened: as §1

[18] = tested on: NCI-H322M
Procedure, shortened: as §1

[19] = tested on: NCI-H358
Procedure, shortened: as §1

[20] = tested on: RERF-LC-KJ
Procedure, shortened: as §1

Compound `Cc1cn(-c2cc(NC(=O)c3ccc(C)c(Nc4nccc(-c5cccnc5)n4)c3)cc(C(F)(F)F)c2)cn1` [Nilotinib] + NC(=O)Nc1cc(-c2cccc(F)c2)sc1C(=O)N[C@H]1CCCNC1 [AZD7762] (partner 0.2 µM) has a relative viability ([1]; first compound 0.001 µM) of 0.667, a relative viability ([1]; first compound 0.003162 µM) of 0.73 and a relative viability ([1]; first compound 0.01 µM) of 0.803. It also gave a relative viability ([1]; first compound 0.03162 µM) of 0.787, a relative viability ([1]; first compound 0.1 µM) of 0.387 and a relative viability ([2]; first compound 0.001 µM) of 0.607. The relative viability ([2]; first compound 0.003162 µM) was 0.423, the relative viability ([2]; first compound 0.01 µM) was 0.631 and the relative viability ([2]; first compound 0.03162 µM) was 0.539. The relative viability ([2]; first compound 0.1 µM) was 0.605, the relative viability ([3]; first compound 0.001 µM) was 0.884 and the relative viability ([3]; first compound 0.003162 µM) was 0.975. It also gave a relative viability ([3]; first compound 0.01 µM) of 0.853, a relative viability ([3]; first compound 0.03162 µM) of 0.638 and a relative viability ([3]; first compound 0.1 µM) of 0.344. The relative viability ([4]; first compound 0.001 µM) was 0.969, the relative viability ([4]; first compound 0.003162 µM) was 1 and the relative viability ([4]; first compound 0.01 µM) was 0.996. The relative viability ([4]; first compound 0.1 µM) was 0.923, the relative viability ([5]; first compound 0.001 µM) was 0.172 and the relative viability ([5]; first compound 0.003162 µM) was 0.158. It also gave a relative viability ([5]; first compound 0.03162 µM) of 0.177, a relative viability ([5]; first compound 0.1 µM) of 0.204 and a relative viability ([6]; first compound 0.001 µM) of 0.861. It also gave a relative viability ([6]; first compound 0.003162 µM) of 0.883, a relative viability ([6]; first compound 0.01 µM) of 0.845 and a relative viability ([6]; first compound 0.03162 µM) of 0.705. For the same compound, the relative viability ([6]; first compound 0.1 µM) was 0.477, the relative viability ([7]; first compound 0.001 µM) was 0.247 and the relative viability ([7]; first compound 0.003162 µM) was 0.513. For the same compound, the relative viability ([7]; first compound 0.01 µM) was 0.498, the relative viability ([7]; first compound 0.03162 µM) was 0.33 and the relative viability ([7]; first compound 0.1 µM) was 0.199. It also gave a relative viability ([8]; first compound 0.001 µM) of 1.03, a relative viability ([8]; first compound 0.003162 µM) of 1.2 and a relative viability ([8]; first compound 0.01 µM) of 1.21. The relative viability ([8]; first compound 0.03162 µM) was 1.08, the relative viability ([8]; first compound 0.1 µM) was 0.642 and the relative viability ([9]; first compound 0.001 µM) was 0.4. For the same compound, the relative viability ([9]; first compound 0.01 µM) was 0.37, the relative viability ([9]; first compound 0.03162 µM) was 0.361 and the relative viability ([9]; first compound 0.1 µM) was 0.362. It also gave a relative viability ([10]; first compound 0.001 µM) of 0.78, a relative viability ([10]; first compound 0.01 µM) of 0.855 and a relative viability ([10]; first compound 0.03162 µM) of 0.74. It also gave a relative viability ([10]; first compound 0.1 µM) of 0.724, a relative viability ([11]; first compound 0.001 µM) of 0.412 and a relative viability ([11]; first compound 0.003162 µM) of 0.499. The relative viability ([11]; first compound 0.01 µM) was 0.399, the relative viability ([11]; first compound 0.03162 µM) was 0.352 and the relative viability ([11]; first compound 0.1 µM) was 0.4. It also gave a relative viability ([12]; first compound 0.001 µM) of 0.483, a relative viability ([12]; first compound 0.003162 µM) of 0.638 and a relative viability ([12]; first compound 0.01 µM) of 0.467. It also gave a relative viability ([12]; first compound 0.03162 µM) of 0.385, a relative viability ([12]; first compound 0.1 µM) of 0.263 and a relative viability ([13]; first compound 0.001 µM) of 0.388. For the same compound, the relative viability ([13]; first compound 0.003162 µM) was 0.318, the relative viability ([13]; first compound 0.01 µM) was 0.303 and the relative viability ([13]; first compound 0.03162 µM) was 0.243. It also gave a relative viability ([13]; first compound 0.1 µM) of 0.146, a relative viability ([14]; first compound 0.001 µM) of 0.436 and a relative viability ([14]; first compound 0.003162 µM) of 0.75. It also gave a relative viability ([14]; first compound 0.01 µM) of 0.41, a relative viability ([14]; first compound 0.03162 µM) of 0.285 and a relative viability ([14]; first compound 0.1 µM) of 0.299. The relative viability ([15]; first compound 0.001 µM) was 0.965, the relative viability ([15]; first compound 0.003162 µM) was 1.14 and the relative viability ([15]; first compound 0.01 µM) was 1.06. For the same compound, the relative viability ([15]; first compound 0.03162 µM) was 0.962, the relative viability ([15]; first compound 0.1 µM) was 0.606 and the relative viability ([16]; first compound 0.001 µM) was 0.691. The relative viability ([16]; first compound 0.003162 µM) was 0.597, the relative viability ([16]; first compound 0.01 µM) was 0.748 and the relative viability ([16]; first compound 0.03162 µM) was 0.567. The relative viability ([16]; first compound 0.1 µM) was 0.596, the relative viability ([17]; first compound 0.001 µM) was 0.965 and the relative viability ([17]; first compound 0.003162 µM) was 1.24. The relative viability ([17]; first compound 0.01 µM) was 1.37, the relative viability ([17]; first compound 0.03162 µM) was 0.967 and the relative viability ([17]; first compound 0.1 µM) was 0.382. For the same compound, the relative viability ([18]; first compound 0.001 µM) was 0.597, the relative viability ([18]; first compound 0.003162 µM) was 0.525 and the relative viability ([18]; first compound 0.01 µM) was 0.518. For the same compound, the relative viability ([18]; first compound 0.03162 µM) was 0.41, the relative viability ([18]; first compound 0.1 µM) was 0.407 and the relative viability ([19]; first compound 0.001 µM) was 0.458. The relative viability ([19]; first compound 0.003162 µM) was 0.539, the relative viability ([19]; first compound 0.01 µM) was 0.556 and the relative viability ([19]; first compound 0.03162 µM) was 0.459. For the same compound, the relative viability ([19]; first compound 0.1 µM) was 0.523, the relative viability ([20]; first compound 0.001 µM) was 0.834 and the relative viability ([20]; first compound 0.003162 µM) was 1.02. The relative viability ([20]; first compound 0.01 µM) was 1.16, the relative viability ([20]; first compound 0.03162 µM) was 0.598 and the relative viability ([20]; first compound 0.1 µM) was 0.427.
